{"source": "ChEMBL document CHEMBL5506055", "about": "“Hit-to-Lead Optimization of the Natural Product Oridonin as Novel NLRP3 Inflammasome Inhibitors with Potent Anti-Inflammation Activity” (J Med Chem, 2024)", "key": {"[1]": {"target": "Nlrp3/Pycard (Mus musculus) (UniProt Q8R4B8+Q9EPB4)", "sequence (Q8R4B8 whole entry, looked up)": "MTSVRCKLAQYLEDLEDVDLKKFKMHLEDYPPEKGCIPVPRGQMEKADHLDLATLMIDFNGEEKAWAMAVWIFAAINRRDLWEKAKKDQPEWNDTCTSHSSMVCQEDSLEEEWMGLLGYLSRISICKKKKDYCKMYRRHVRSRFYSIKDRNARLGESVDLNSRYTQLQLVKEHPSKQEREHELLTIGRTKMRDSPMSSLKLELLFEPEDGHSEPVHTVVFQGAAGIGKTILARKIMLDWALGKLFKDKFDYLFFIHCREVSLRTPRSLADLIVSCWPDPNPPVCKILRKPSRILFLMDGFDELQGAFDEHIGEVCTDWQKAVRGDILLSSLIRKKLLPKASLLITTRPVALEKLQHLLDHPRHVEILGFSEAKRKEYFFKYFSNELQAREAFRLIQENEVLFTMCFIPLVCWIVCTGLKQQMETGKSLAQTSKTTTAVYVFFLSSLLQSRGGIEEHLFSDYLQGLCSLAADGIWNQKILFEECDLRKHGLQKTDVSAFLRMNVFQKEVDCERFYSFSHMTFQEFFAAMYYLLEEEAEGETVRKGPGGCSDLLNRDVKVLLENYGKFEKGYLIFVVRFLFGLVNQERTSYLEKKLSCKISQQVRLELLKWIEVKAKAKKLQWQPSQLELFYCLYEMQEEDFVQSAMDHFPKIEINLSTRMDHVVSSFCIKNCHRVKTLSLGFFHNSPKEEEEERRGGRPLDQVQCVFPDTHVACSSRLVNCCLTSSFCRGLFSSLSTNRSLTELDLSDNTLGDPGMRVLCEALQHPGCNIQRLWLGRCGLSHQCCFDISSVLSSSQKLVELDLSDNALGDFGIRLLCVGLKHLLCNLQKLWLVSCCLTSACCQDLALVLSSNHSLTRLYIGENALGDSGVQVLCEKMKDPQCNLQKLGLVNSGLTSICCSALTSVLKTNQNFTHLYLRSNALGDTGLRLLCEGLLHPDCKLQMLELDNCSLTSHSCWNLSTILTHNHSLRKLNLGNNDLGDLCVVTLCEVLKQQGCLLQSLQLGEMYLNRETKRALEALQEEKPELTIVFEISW", "sequence (Q9EPB4 whole entry, looked up)": "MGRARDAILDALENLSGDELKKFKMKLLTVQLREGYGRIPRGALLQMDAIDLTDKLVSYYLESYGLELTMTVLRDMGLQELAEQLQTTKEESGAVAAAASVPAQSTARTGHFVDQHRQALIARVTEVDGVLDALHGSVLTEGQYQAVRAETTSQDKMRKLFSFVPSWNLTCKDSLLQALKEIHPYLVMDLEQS", "assay": "Inhibition of NLRP3/ASC protein-protein interaction in LPS/ATP-induced C57BL/6 mouse BMDMs at 200 nM preincubated with LPS for 4 hrs followed by compound addition for 30 mins and further stimulated with ATP for 30 mins by Western blotting analysis", "format": "cell-based", "settings": "BMDM, time 1.0 hrs"}, "[2]": {"assay": "Half-life in ICR mouse at 1 mg/kg, iv measured upto 24 hrs by LC-MS/MS method", "format": "ADME, organism-based", "settings": "in vivo"}, "[3]": {"tested_on": "BMDM", "assay": "Inhibition of mitochondrial ROS production in mouse BMDMs at 200 nM preincubated with LPS for 4 hrs followed by compound addition for 30 mins and further stimulated with ATP for 30 mins by confocal microscopic analysis", "format": "functional, cell-based", "settings": "time 1.0 hrs"}, "[4]": {"tested_on": "Mus musculus", "assay": "Antiinflammatory activity in C57BL/6 mouse model of arthritis assessed as reduction in MSU-induced TNFalpha secretion at 12.5 to 25 mg/kg, iv measured upto 24 hrs", "format": "functional, organism-based", "settings": "dose 12.5-25 mg/kg"}, "[5]": {"target": "NLRP3-NEK7 (Mus musculus) (UniProt Q8R4B8+Q9ES74)", "sequence (Q8R4B8 whole entry, looked up)": "as the sequence (Q8R4B8 whole entry, looked up) above", "sequence (Q9ES74 whole entry, looked up)": "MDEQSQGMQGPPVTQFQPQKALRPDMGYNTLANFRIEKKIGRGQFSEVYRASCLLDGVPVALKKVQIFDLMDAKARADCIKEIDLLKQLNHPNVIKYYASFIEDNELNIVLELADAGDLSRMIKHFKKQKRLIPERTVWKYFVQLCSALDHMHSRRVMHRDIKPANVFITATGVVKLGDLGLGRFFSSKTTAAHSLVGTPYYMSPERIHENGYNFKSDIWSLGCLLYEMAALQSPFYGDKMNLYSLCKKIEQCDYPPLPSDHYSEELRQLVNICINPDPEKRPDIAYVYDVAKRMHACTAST", "assay": "Inhibition of NLRP3/NEK7 protein-protein interaction in LPS/ATP-induced C57BL/6 mouse BMDMs at 200 nM preincubated with LPS for 4 hrs followed by compound addition for 30 mins and further stimulated with ATP for 30 mins by Western blotting analysis", "format": "cell-based", "settings": "BMDM, time 1.0 hrs"}, "[6]": {"target": "NACHT, LRR and PYD domains-containing protein 3 (Mus musculus) (UniProt Q8R4B8)", "sequence (Q8R4B8 whole entry, the tested form may be a part)": "as the sequence (Q8R4B8 whole entry, looked up) above", "assay": "Inhibition of NLRP3 inflammasome activation in LPS-induced C57BL/6 mouse BMDMs assessed as effect on p65 expression at 50 to 200 nM preincubated for 24 hrs followed by LPS addition for 4 hrs by Western blotting analysis", "format": "cell-based", "settings": "BMDM, dose 50-200 nM, time 28.0 hrs"}, "[7]": {"assay": "Stability in human plasma assessed as half life measured upto 8 hrs", "format": "ADME, cell-free"}, "[8]": {"assay": "Oral bioavailability in ICR mouse at 10 mg/kg measured upto 24 hrs by LC-MS/MS method", "format": "ADME, organism-based", "settings": "in vivo, po, 10 mg/kg, 24 h"}, "[9]": {"target": "NLR family CARD domain-containing protein 4 (Mus musculus) (UniProt Q3UP24)", "sequence (Q3UP24 whole entry, the tested form may be a part)": "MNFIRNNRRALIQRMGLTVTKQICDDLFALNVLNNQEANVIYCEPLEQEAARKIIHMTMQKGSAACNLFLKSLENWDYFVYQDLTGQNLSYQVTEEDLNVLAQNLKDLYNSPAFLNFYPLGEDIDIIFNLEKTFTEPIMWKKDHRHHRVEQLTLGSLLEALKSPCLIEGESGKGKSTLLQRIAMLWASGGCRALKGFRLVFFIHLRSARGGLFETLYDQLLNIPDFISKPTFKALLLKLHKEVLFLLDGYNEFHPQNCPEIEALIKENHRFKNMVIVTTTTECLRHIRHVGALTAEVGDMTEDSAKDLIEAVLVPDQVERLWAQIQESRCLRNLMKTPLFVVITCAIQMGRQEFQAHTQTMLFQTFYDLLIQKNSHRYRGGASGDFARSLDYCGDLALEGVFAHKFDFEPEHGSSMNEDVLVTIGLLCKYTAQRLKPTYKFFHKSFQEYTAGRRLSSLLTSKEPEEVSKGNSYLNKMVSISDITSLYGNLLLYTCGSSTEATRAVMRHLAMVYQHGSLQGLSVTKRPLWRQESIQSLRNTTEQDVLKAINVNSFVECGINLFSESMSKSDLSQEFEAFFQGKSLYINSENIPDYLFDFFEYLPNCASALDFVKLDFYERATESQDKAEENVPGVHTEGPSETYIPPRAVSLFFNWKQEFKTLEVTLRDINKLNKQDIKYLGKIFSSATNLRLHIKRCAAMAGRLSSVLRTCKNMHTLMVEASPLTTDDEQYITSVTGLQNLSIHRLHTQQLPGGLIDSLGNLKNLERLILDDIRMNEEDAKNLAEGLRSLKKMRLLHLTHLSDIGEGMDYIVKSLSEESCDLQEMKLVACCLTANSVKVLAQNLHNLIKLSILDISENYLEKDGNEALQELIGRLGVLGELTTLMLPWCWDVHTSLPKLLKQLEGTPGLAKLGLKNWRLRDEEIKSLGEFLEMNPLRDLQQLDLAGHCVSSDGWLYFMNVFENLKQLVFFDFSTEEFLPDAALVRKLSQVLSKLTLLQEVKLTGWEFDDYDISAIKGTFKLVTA", "assay": "Inhibition of NLRC4 inflammasome activation in LPS/Poly(dA:dT)-induced C57BL/6 mouse BMDMs at 200 nM […] for 4 hrs followed by compound addition for 30 mins and further Poly(dA:dT) transfected with Lipo-3000 for 4 hrs", "format": "cell-based", "settings": "BMDM, time 4.5 hrs"}, "[10]": {"tested_on": "Mus musculus", "assay": "Antiinflammatory activity in MSU-induced C57BL/6 mouse model of arthritis at 100 mg/kg, po measured upto 24 hrs", "format": "functional, organism-based"}, "[11]": {"tested_on": "Mus musculus", "assay": "Antiinflammatory activity in C57BL/6 mouse model of arthritis assessed as reduction in MSU-induced pro-caspase 1 expression in joints at 12.5 to 25 mg/kg, iv measured upto 24 hrs", "format": "functional, organism-based", "settings": "dose 12.5-25 mg/kg"}, "[12]": {"assay": "Hepatotoxicity in mouse assessed as change in AST/ALT ratio at 100 mg/kg, po or 12.5 to 25 mg/kg, iv", "format": "toxicity, organism-based", "settings": "in vivo"}, "[13]": {"tested_on": "BMDM", "assay": "Inhibition of mitochondrial damage in mouse BMDMs at 200 nM preincubated with LPS for 4 hrs followed by compound addition for 30 mins and further stimulated with ATP for 30 mins by confocal microscopic analysis", "format": "functional, cell-based", "settings": "time 1.0 hrs"}, "[14]": {"tested_on": "Mus musculus", "assay": "Antiinflammatory activity in C57BL/6 mouse model of arthritis assessed as reduction in MSU-induced IL-1beta secretion at 12.5 to 25 mg/kg, iv measured upto 24 hrs", "format": "functional, organism-based", "settings": "dose 12.5-25 mg/kg"}, "[15]": {"target": "T1, Interferon-inducible protein AIM2 (Mus musculus) (UniProt Q91VJ1)", "T1 sequence (whole entry)": "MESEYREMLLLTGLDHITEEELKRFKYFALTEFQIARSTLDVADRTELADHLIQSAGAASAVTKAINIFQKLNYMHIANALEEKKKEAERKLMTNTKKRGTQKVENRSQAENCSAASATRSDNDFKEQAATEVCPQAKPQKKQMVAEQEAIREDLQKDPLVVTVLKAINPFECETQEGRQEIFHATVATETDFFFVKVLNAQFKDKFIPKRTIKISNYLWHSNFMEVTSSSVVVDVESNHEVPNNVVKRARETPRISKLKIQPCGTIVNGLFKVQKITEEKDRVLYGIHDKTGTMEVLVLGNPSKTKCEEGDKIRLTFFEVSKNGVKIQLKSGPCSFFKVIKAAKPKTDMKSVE", "assay": "Inhibition of AIM2 inflammasome activation in LPS/flagellin-induced C57BL/6 mouse BMDMs at 200 nM […] for 4 hrs followed by compound addition for 30 mins and further stimulated with flagellin for 4 hrs", "format": "cell-based", "settings": "BMDM, time 4.5 hrs"}, "[16]": {"assay": "Half-life in ICR mouse at 10 mg/kg, po measured upto 24 hrs by LC-MS/MS method", "format": "ADME, organism-based", "settings": "in vivo"}, "[17]": {"target": "NACHT, LRR and PYD domains-containing protein 3 (Mus musculus, UniProt Q8R4B8)", "sequence (Q8R4B8 whole entry, the tested form may be a part)": "as the sequence (Q8R4B8 whole entry, looked up) above", "assay": "Inhibition of NLRP3 inflammasome activation in LPS/ATP-induced C57BL/6 mouse BMDMs assessed as reduction in IL-1beta secretion preincubated with LPS for 4 hrs followed by compound addition for 30 mins and further stimulated with ATP for 30 mins by ELISA", "format": "cell-based, BMDM"}, "[18]": {"assay": "Stability in rat liver microsomes assessed as half life preincubated for 5 mins with NADPH followed by compound addition and measured upto 120 mins by LC-MS/MS analysis", "format": "ADME, Microsome", "settings": "time < 125 min"}, "[19]": {"target": "NACHT, LRR and PYD domains-containing protein 3 (Mus musculus) (UniProt Q8R4B8)", "assay": "Inhibition of NLRP3 inflammasome activation in LPS/ATP-induced C57BL/6 mouse BMDMs assessed as reduction in TNFalpha level at 1000 nM preincubated for 30 mins followed by LPS addition for 4 hrs and further ATP stimulation for 30 mins by ELISA", "format": "cell-based", "settings": "BMDM, time 5.0 hrs"}, "[20]": {"target": "hERG (KCNH2) (Homo sapiens, UniProt Q12809)", "sequence (Q12809 whole entry)": "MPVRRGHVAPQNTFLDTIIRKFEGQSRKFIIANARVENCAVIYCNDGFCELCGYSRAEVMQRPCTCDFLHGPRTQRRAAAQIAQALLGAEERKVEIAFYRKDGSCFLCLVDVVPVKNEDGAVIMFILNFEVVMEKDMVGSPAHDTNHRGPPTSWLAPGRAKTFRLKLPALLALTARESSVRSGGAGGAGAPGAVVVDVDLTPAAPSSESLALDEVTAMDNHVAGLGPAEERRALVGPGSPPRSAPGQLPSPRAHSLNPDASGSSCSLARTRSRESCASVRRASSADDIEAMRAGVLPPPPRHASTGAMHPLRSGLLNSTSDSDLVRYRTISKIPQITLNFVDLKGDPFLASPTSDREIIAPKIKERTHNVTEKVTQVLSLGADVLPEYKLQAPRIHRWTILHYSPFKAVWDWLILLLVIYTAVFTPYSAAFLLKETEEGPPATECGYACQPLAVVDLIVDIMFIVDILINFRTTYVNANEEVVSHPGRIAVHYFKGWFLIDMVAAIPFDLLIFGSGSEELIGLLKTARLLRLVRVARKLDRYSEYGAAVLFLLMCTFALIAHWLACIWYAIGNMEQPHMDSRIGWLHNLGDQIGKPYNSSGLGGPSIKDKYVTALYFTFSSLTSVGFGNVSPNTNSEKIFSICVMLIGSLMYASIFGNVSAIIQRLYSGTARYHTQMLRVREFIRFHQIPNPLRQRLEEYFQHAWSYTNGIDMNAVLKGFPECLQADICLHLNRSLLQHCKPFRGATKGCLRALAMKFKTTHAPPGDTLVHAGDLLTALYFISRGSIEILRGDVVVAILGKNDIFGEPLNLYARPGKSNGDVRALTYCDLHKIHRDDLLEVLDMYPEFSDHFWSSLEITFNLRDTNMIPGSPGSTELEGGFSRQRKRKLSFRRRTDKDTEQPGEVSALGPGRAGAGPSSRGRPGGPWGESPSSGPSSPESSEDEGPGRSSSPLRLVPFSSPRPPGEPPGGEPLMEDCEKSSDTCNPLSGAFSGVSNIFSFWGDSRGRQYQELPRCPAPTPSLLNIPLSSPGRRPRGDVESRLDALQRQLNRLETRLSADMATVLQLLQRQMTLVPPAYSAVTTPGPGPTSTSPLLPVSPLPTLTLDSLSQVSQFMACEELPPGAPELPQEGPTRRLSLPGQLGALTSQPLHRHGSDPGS", "assay": "Inhibition of human ERG expressed in CHO cells at 40 uM relative to control", "format": "toxicity, cell-based", "settings": "CHO cells that express human ERG"}, "[21]": {"assay": "Clearance in ICR mouse at 1 mg/kg, iv measured upto 24 hrs by LC-MS/MS method", "format": "ADME, organism-based", "settings": "in vivo"}, "[22]": {"assay": "Stability in mouse plasma assessed as half life measured upto 8 hrs", "format": "ADME, cell-free"}, "[23]": {"target": "NACHT, LRR and PYD domains-containing protein 3 (Mus musculus) (UniProt Q8R4B8)", "assay": "(§1) Inhibition of NLRP3 inflammasome activation in LPS/ATP-induced C57BL/6 mouse BMDMs assessed as inhibition of ASC oligomerization by measuring reduction in cleaved caspase-1 secretion at 50 to 200 nM preincubated with LPS for 4 hrs followed by compound addition for 30 mins and further stimulated with ATP for 30 mins by Western blotting analysis", "format": "cell-based", "settings": "BMDM, dose 50-200 nM, time 1.0 hrs"}, "[24]": {"target": "Voltage-gated inwardly rectifying potassium channel KCNH2 (Homo sapiens, UniProt Q12809)", "sequence (Q12809 whole entry)": "as above", "assay": "Inhibition of human ERG expressed in CHO cells", "format": "toxicity, cell-based"}, "[25]": {"target": "NACHT, LRR and PYD domains-containing protein 3 (Mus musculus) (UniProt Q8R4B8)", "assay": "as §1, with “NLRP3 expression” for “cleaved caspase-1 secretion”", "format": "cell-based", "settings": "BMDM, dose 50-200 nM, time 1.0 hrs"}, "[26]": {"tested_on": "Mus musculus", "assay": "Antiinflammatory activity in MSU-induced C57BL/6 mouse model of arthritis assessed as reduction in inflammatory cell infiltration at 12.5 to 25 mg/kg, iv measured after 24 hrs", "format": "functional, organism-based", "settings": "dose 12.5-25 mg/kg"}, "[27]": {"assay": "Stability in human liver microsomes assessed as half life preincubated for 5 mins with NADPH followed by compound addition and measured upto 120 mins by LC-MS/MS analysis", "format": "ADME, Microsome", "settings": "time < 125 min"}}, "note": "pIC50: −log10 of the molar value. Active and inactive are the calls of the source. The rule behind the calls is not given here.", "data": [{"smiles": "C=C1C(=O)[C@]23[C@H](O)[C@H]1CC[C@H]2[C@]12C=CCC(C)(C)[C@H]1[C@H](O)[C@@]3(OCCC(=O)O)OC2", "values": [{"measurement": "inhibition", "setting": "[1]", "value": "Active"}, {"measurement": "half-life", "setting": "[2]", "value": 1.98, "unit": "h"}, {"measurement": "inhibition", "setting": "[3]", "value": "inactive"}, {"measurement": "Activity", "setting": "[4]", "value": "Active"}, {"measurement": "inhibition", "setting": "[5]", "value": "Active"}, {"measurement": "inhibition", "setting": "[6]", "value": "inactive"}, {"measurement": "half-life", "setting": "[7]", "value": 6.92, "unit": "h"}, {"measurement": "F", "setting": "[8]", "value": 9, "unit": "%"}, {"measurement": "inhibition", "setting": "[9]", "value": "Active"}, {"measurement": "Activity", "setting": "[10]", "value": "Active"}, {"measurement": "Activity", "setting": "[11]", "value": "inactive"}, {"measurement": "Activity", "setting": "[12]", "value": "Non-Toxic"}, {"measurement": "inhibition", "setting": "[13]", "value": "inactive"}, {"measurement": "Activity", "setting": "[14]", "value": "Active"}, {"measurement": "inhibition", "setting": "[15]", "value": "Active"}, {"measurement": "half-life", "setting": "[16]", "value": 1.6, "unit": "h"}, {"measurement": "pIC50", "setting": "[17]", "value": 7.11}, {"measurement": "half-life", "setting": "[18]", "value": 3.19, "unit": "h"}, {"measurement": "inhibition", "setting": "[19]", "value": "Active"}, {"measurement": "inhibition at 40 µM", "setting": "[20]", "value": 22, "unit": "%"}, {"measurement": "clearance", "setting": "[21]", "value": 69.1, "unit": "mL/min/kg"}, {"measurement": "half-life", "setting": "[22]", "value": 15.2, "unit": "h"}, {"measurement": "inhibition", "setting": "[23]", "value": "Active"}, {"measurement": "pIC50", "setting": "[24]", "value": "< 4.40"}, {"measurement": "inhibition", "setting": "[25]", "value": "inactive"}, {"measurement": "Activity", "setting": "[26]", "value": "Active"}, {"measurement": "half-life", "setting": "[27]", "value": 3.03, "unit": "h"}]}]}
